Results taken from publication PMC6767236, “Selective Cannabinoid 2 Receptor Agonists as Potential Therapeutic Drugs for the Treatment of Endotoxin-Induced Uveitis” (Molecules, 2019).
Converted amounts (≈) assume the structure as drawn.

Tests used:
[1] = Kinetic lyophilization solubility assay; type: physicochemical; conditions: 0.05 M phosphate buffer, aqueous buffer, thermodynamic from solid; phosphate buffer pH 6.5
Description: The X-ray structure of CB2R complexed with the antagonist AM10257 (5zty) was used as a template to dock CB2R ligands. The docking experiments were performed with the software GOLD ([…]) with default settings. The best 10 docking poses for each compound were energy-minimized within the binding pocket using MOE ( molecular operating environment ver. 2014.09, Chemical Computing Group, Montreal, Canada) and examined visually to select the most reasonable docking mode with respect to molecular interactions and internal conformational strain. The final selection was based on checking consiste ncy with the available structure –activity relationship information.
Kinetic Lyophilization Solubility Assay
The solubility of a test compound in phosphate buffer at pH 6.5 from evaporated DMSO stock solution is measured over time, resulting in the kinetic solubility of the compound. Samples were prepared in duplicate from 10 mM DMSO stock solutions. […] The filtrate and its 1 :10 dilution were analyzed by direct UV measurement or by HPLC -UV. […]
Approximately 8.6 mg test compound per milliliter solvent/vehicle was stirred in HPLC vials (9 × 12 × 32 mm, Waters) at 350 rpm for 15 h. […] Addition of solid material was repeated up to 96 h or until residual solid particles could be detected. […] The filtrates were diluted in ethanol and analyzed for content by UPLC. […]

[2] = target: T1, human CB1R (Homo sapiens, UniProt P21554); experiment: cAMP assay, CHO cells expressing human CB1R; type: cell-based; conditions: read-out: hCB1R: cAMP EC50
T1 construct: host or cells: CHO
Description: The effect of ligands on the forskolin-stimulated accumulation of cAMP was determined using the LANCE ULTRA cAMP kit as per the manufacturer’s instruction (Perkin-Elmer Life Sciences, Boston, MA, USA).
For human CB2R and CB1R, cAMP assays were performed using CHO cells stably expressing human CB2R or human CB1R (DiscoveRx, Fremont, CA, USA) using a cAMP-Nano-TRF detection kit (Roche Diagnostics, Penzberg, Germany). Cells were seeded 17–24 h prior to the experiment at a density of 3 × 10^4 cells per well in a black 96-well plate with clear flat bottom (Corning, Wiesbaden, Germany) and incubated in 5% CO2 at 37 °C in a humidified incubator. The growth medium was exchanged with Krebs Ringer bicarbonate buffer with 1 mmol/L 3-isobutyl-1-methylxanthine (IBMX), 0.1% fatty acid-free BSA and incubated at 30 °C for 60 min. Agonist was added to a final assay volume of 100 μL and the mixture was incubated for 30 min at 30 °C. The assay was stopped by the addition of 50 μL 3 × lysis reagent and shaken for 2 h at room temperature. The time-resolved fluorescence energy transfer was measured using an LF502 Nanoscan FLT (IOM, Berlin, Germany), equipped with a laser as excitation source. cAMP content was determined from the function of a standard curve spanning from 10 to 0.13 nmol/L cAMP. Efficacies are expressed as percent relative to 1 µM CP55940.

[3] = target: T1, human CB1R; experiment: PathHunter β-arrestin recruitment assay, hCB1R; type: cell-based; conditions: read-out: hCB1R: beta arrestin EC50
Description: Assays were carried out using the PathHunter hCB1_bgal, hCB2_bgal, or mCB2_bgal CHOK1 β-arrestin recruitment assay kit (DiscoveRx, Fremont, CA, USA) as previously described. A total of 5000 cells per well were seeded in 384-well plates (Perkin Elmer, MA, USA) containing 20 μL cell culture medium and incubated for 16–18 h at 37 °C and 5% CO2. Cells were stimulated with 10 μM of each agonist or 11 increasing concentrations and incubated for 90 min at 37 °C and 5% CO2. […] The cells were incubated for 90 min at 37 °C and 5% CO2. Compounds in DMSO stock solutions were added using a HP D300 Digital Dispenser (Tecan, Mannedorf, Switzerland). The final concentration of organic solvent per assay point was ≤ 0.1%. The PathHunter Detection mixture was used, according to the manufacturer’s protocol, to determine the β-galactosidase enzyme activity. Detection mixture, 12 μL per well, was added and the plate was incubated for 1 h in the dark at room temperature. Chemiluminescence, indicated as relative light unit, was measured on an EnVision multilabel plate reader (Perkin Elmer, MA, USA).

T1 sequence (P21554 whole entry): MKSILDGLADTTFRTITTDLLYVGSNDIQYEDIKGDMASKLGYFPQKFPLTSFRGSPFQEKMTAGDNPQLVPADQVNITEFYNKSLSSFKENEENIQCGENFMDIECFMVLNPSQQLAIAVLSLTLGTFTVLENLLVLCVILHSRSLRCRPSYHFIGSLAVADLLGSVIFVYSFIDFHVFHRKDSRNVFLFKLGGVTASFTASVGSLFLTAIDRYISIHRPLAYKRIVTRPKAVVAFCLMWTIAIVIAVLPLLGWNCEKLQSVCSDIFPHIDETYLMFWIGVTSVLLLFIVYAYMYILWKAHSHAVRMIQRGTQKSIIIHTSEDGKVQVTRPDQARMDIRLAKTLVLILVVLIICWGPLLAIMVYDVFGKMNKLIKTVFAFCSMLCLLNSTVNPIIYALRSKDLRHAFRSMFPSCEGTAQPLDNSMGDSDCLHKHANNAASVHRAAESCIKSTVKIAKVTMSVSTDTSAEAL

Row | SMILES | solubility kinetic at 15 h [1] [µg/mL] | EC50 [2] [µM] | EC50 [3] [µM]
1 | Cc1nc([C@](C)(CC2CC2)NC(=O)c2cc(OCC(F)(F)F)c(C3CC3)cn2)no1 [RO6871085, 5-Cyclopropyl-N-[(2S)-1-cyclopropyl-2-(5-methyl-1,2,4-oxadiazol-3-yl)propan-2-yl]-4-(2,2,2-trifluoroethoxy)pyridine-2-carboxamide] | 4.2 ± 0.1 (≈ 9.9 µM) | – | –
2 | CNC(=O)[C@@H](NC(=O)c1cc(OCC2(C)COC2)c(C2CC2)cn1)C(C)(C)C [RO6851228, 5-Cyclopropyl-N-[(2S)-3,3-dimethyl-1-(methylamino)-1-oxobutan-2-yl]-4-[(3-methyloxetan-3-yl)methoxy]pyridine-2-carboxamide] | 174 ± 47 (≈ 447 µM) | > 10 | –
3 | CC(C)(C)c1nc(N2CC[C@H](O)C2)c2nnn(Cc3nnnn3C3CC3)c2n1 [RO6871304, (3S)-1-{5-tert-butyl-3-[(1-cyclopropyl-1H-tetrazol-5-yl)methyl]-3H-[1,2, 3]triazolo[4,5-d]pyrimidin-7-yl}pyrrolidin-3-ol] | – | – | > 30
